Target: T1, human PDE2A1 (Homo sapiens, UniProt O00408)
T1 construct: GST; purchased BPS Bioscience (San Diego, Calif.) 60020; host or cells: insect cells
Assay: IMAP FP PDE selectivity panel, human PDE2A1
Type: biochemical
Details: Lab B; read-out: Human PDE2 Ki (nM) Lab B
Procedure: Selectivity for PDE2, as compared to other PDE families, was assessed using the IMAP® technology. Human PDE10A2 enzyme was prepared from cytosolic fractions of transiently transfected HEK cells.
Assays for PDE 1 through 11 were performed in parallel at room temperature in 384-well microtiter plates with an incubation volume of 20.2 μL. Solutions of test compounds were prepared in DMSO and serially diluted with DMSO to yield 30 μL of each of ten solutions differing by 3-fold in concentration, at 32 serial dilutions per plate. […] A Labcyte POD 810 (Labcyte, Sunnyvale, Calif.) was used to dispense 200 nL from each well of the titration plate to make eleven copies of the assay plate for each titration, one copy for each PDE enzyme. A solution of each enzyme (dilution from aliquots, sufficient to produce 20% substrate conversion) and a separate solution of FAM-labeled cAMP or FAM-labeled cGMP from Molecular Devices (Sunnyvale, Calif., product # R7506 or cGMP#R7508), at a final concentration of 50 nM were made in the assay buffer (10 mM Tris HCl, pH 7.2, 10 mM MgCl2, 0.05% NaN3 0.01% Tween-20, and 1 mM DTT). Note that the substrate for PDE2 is 50 nM FAM cAMP containing 1000 nM of cGMP. The enzyme and the substrate were then added to the assay plates in two consecutive additions of 10 μL and then shaken to mix. The reaction was allowed to proceed at room temperature for 60 minutes. A binding solution was then made from the kit components, comprised of 80% Solution A, 20% Solution B and binding reagent at a volume of 1/600 the total binding solution. The enzymatic reaction was stopped by addition of 60 μL of the binding solution to each well of the assay plate. The plates were sealed and shaken for 10 seconds. The plates were incubated at room temperature for one hour, then the parallel and perpendicular fluorescence was measured using a Tecan Genios Pro plate reader (Tecan, Switzerland). […] The intrinsic PDE2 inhibitory activity of a compound which may be used in accordance with the present invention may be determined by these assays.

T1 sequence (O00408 1-920 isoform O00408-2): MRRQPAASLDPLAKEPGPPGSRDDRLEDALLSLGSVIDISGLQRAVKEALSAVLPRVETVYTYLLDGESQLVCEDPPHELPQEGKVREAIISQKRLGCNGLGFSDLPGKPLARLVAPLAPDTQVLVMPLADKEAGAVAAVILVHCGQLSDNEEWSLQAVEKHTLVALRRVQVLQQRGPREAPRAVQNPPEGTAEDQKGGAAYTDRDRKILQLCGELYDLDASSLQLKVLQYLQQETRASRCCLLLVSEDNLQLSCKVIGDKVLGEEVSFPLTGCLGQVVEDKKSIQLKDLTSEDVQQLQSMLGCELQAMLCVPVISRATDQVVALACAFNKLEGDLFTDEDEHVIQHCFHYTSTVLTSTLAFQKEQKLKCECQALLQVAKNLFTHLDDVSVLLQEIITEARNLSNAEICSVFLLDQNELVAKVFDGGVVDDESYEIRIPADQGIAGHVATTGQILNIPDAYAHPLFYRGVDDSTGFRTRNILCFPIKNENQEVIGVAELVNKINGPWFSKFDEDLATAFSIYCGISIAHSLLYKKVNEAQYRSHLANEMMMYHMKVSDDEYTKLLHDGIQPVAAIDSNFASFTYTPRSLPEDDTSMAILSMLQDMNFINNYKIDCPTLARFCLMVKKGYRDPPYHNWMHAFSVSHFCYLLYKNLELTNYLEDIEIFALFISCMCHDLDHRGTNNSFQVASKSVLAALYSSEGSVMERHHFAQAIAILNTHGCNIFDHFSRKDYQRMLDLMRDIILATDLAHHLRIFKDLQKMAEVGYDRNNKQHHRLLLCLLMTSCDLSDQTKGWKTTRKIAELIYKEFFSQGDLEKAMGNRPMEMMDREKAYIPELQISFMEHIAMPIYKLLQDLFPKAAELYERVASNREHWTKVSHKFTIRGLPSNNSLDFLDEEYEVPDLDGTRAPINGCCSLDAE

Row | SMILES | Ki [nM]
1 | CC(C)(O)C(Nc1cc(C2CC2)nc2ncnn12)c1ccc(OC(F)(F)F)cc1F (single isomer, unassigned) [Example 142, (1S or R)-1-[(5- Cyclopropyl [1,2,4]triazolo [1,5-a]pyrimidin-7-yl)amino]-1-[2-fluoro-4-(trifluoro-methoxy)phenyl]-2-methylpropan-2-ol] | > 2960
2 | CC(C)(O)C(Nc1cc(C2CC2)nc2ncnn12)c1ccc(OC(F)(F)F)cc1F (single isomer, unassigned) [Example 143, (1R or S)-1-[(5- Cyclopropyl [1,2,4]triazolo [1,5-a]pyrimidin-7-yl)amino)-1-[2-fluoro-4-(trifluoro-methoxy)phenyl]-2-methylpropan-2-ol] | 97
3 | CC(C)(O)C(Nc1cc(C2CC2)nc2ncnn12)c1ccc(S(F)(F)(F)(F)F)cc1 (single isomer, unassigned) [Example 144, (1S or R)-1-[(5- Cyclopropyl [1,2,4]triazolo [1,5-a]pyrimidin-7-yl)amino]-2-methyl-1-[4-(pentafluoro-λ^6-sulfanyl)phenyl]propan-2-ol] | > 2960
4 | CC(C)(O)C(Nc1cc(C2CC2)nc2ncnn12)c1ccc(S(F)(F)(F)(F)F)cc1 (single isomer, unassigned) [Example 145, (1R or S)-1-[(5- Cyclopropyl [1,2,4]triazolo [1,5-a]pyrimidin-7-yl)amino]-2-methyl-1-[4-(pentafluoro-λ^6-sulfanyl)phenyl]propan-2-ol] | 25
5 | CC(C)(C)c1cc(NC(c2ccc(OC(F)(F)F)cc2F)C(C)(C)O)n2ncnc2n1 (single isomer, unassigned) [Example 148, (1S or R)-1-[(5-tert-butyl[1,2,4]triazolo[1,5-a]pyrimidin-7-yl)amino]-1-[2-fluoro-4-(trifluoro-methoxy)phenyl]-2-methylpropan-2-ol] | > 2960
6 | CC(C)(C)c1cc(NC(c2ccc(OC(F)(F)F)cc2F)C(C)(C)O)n2ncnc2n1 (single isomer, unassigned) [Example 149, (1R or S)-1-[(5-tert-butyl[1,2,4]triazolo[1,5-a]pyrimidin-7-yl)amino]-1-[2-fluoro-4-(trifluoro-methoxy)phenyl]-2-methylpropan-2-ol] | > 2960
7 | CC(C)(C)c1cc(NC(c2ccc(S(F)(F)(F)(F)F)cc2)C(C)(C)O)n2ncnc2n1 (single isomer, unassigned) [Example 150, (1S or R)-1-[(5-tert-Butyl[1,2,4]triazolo[1,5-a]pyrimidin-7-yl)amino]-2-methyl-1-[4-(pentafluoro-λ^6-sulfanyl)phenyl] propan-2-ol] | > 2960
8 | CC(C)(C)c1cc(NC(c2ccc(S(F)(F)(F)(F)F)cc2)C(C)(C)O)n2ncnc2n1 (single isomer, unassigned) [Example 151, (1R or S)-1-[(5-tert-Butyl[1,2,4]triazolol[1,5-a]pyrimidin-7-yl)amino]-2-methyl-1-[4-(pentafluoro-λ^6-sulfanyl)phenyl] propan-2-ol] | > 2960
9 | CC(C)(O)C(Nc1cc(C(F)(F)F)nc2ncnn12)c1ccc(C(F)(F)F)cc1Cl (single isomer, unassigned) [Example 159, (1S or R)-1-[2-Chloro-4-(trifluoromethyl)phenyl]-2-methyl-1-{[5-(trifluoromethyl)[1,2,4]triazolo[1,5-a]pyrimidin-7-yl]amino}propan-2-ol] | > 2960

Next, values leading:

Row | Ki [nM] | SMILES
10 | 18 | Cc1cc(NC(c2ccc(OC(F)(F)F)c(F)c2)C(C)(C)O)n2nc(C)nc2n1 (single isomer, unassigned) [Example 133, (1R or S)-1-[(2,5-Dimethyl[1,2,4]triazolo[1,5-a]pyrimidin-7-yl)amino]-1-[3-fluoro-4-(tri-fluoromethoxy)phenyl]-2-methylpropan-2-ol]
11 | > 2960 | Cc1cc(NC(c2ccc(OC(F)(F)F)cc2F)C(C)(C)O)n2nc(C)nc2n1 (single isomer, unassigned) [Example 134, (1S or R)-1-[(2,5-Dimethyl[1,2,4]triazolo[1,5-a]pyrimidin-7-yl)amino]-1-[2-fluoro-4-(tri-fluoromethoxy)phenyl]-2-methylpropan-2-ol]
12 | 30 | Cc1cc(NC(c2ccc(OC(F)(F)F)cc2F)C(C)(C)O)n2nc(C)nc2n1 (single isomer, unassigned) [Example 135, (1R or S)-1-[(2,5-Dimethyl[1,2,4]triazolo[1,5-a]pyrimidin-7-yl)amino]-1-[2-fluoro-4-(tri-fluoromethoxy)phenyl]-2-methylpropan-2-ol]
13 | > 2960 | CC(C)c1cc(NC(c2ccc(OC(F)(F)F)cc2F)C(C)(C)O)n2ncnc2n1 (single isomer, unassigned) [Example 136, (1S or R)-1-[2-Fluoro-4-(trifluoro-methoxy)phenyl]-2-methyl-1-{[5-(1-methylethyl) [1,2,4]triazolo [1,5-a]pyrimidin-7-yl]amino} propan-2-ol]
14 | 436 | CC(C)c1cc(NC(c2ccc(OC(F)(F)F)cc2F)C(C)(C)O)n2ncnc2n1 (single isomer, unassigned) [Example 137, (1R or S)-1-[2-Fluoro-4-(trifluoro-methoxy)phenyl]-2-methyl-1-{[5-(1-methylethyl) [1,2,4]triazolo [1,5-a]pyrimidin-7-yl]amino} propan-2-ol]
15 | ~1570 | CC(C)c1cc(NC(c2ccc(OC(F)(F)F)c(F)c2)C(C)(C)O)n2ncnc2n1 (single isomer, unassigned) [Example 138, (1S or R)-1-[3-Fluoro-4-(trifluoro-methoxy)phenyl]-2-methyl-1-{[5-(1-methylethyl) [1,2,4]triazolo [1,5-a]pyrimidin-7-yl]amino} propan-2-ol]
16 | > 2960 | CC(C)c1cc(NC(c2ccc(OC(F)(F)F)c(F)c2)C(C)(C)O)n2ncnc2n1 (single isomer, unassigned) [Example 139, (1R or S)-1-[3-Fluoro-4-(trifluoro-methoxy)phenyl]-2-methyl-1-{[5-(1-methylethyl) [1,2,4]triazolo [1,5-a]pyrimidin-7-yl]amino} propan-2-ol]
17 | > 2960 | CC(C)(O)C(Nc1cc(C2CC2)nc2ncnn12)c1ccc(OC(F)(F)F)c(F)c1 (single isomer, unassigned) [Example 140, (1S or R)-1-[(5- Cyclopropyl [1,2,4]triazolo [1,5-a]pyrimidin-7-yl)amino]-1-[3-fluoro-4-(trifluoro-methoxy)phenyl]-2-methylpropan-2-ol]
18 | 877 | CC(C)(O)C(Nc1cc(C2CC2)nc2ncnn12)c1ccc(OC(F)(F)F)c(F)c1 (single isomer, unassigned) [Example 141, (1R or S)-1-[(5- Cyclopropyl [1,2,4]triazolo [1,5-a]pyrimidin-7-yl)amino]-1-[3-fluoro-4-(trifluoro-methoxy)phenyl]-2-methylpropan-2-ol]
19 | > 2960 | CC(C)(C)c1cc(NC(c2ccc(OC(F)(F)F)c(F)c2)C(C)(C)O)n2ncnc2n1 (single isomer, unassigned) [Example 146, (1S or R)-1-[(5-tert-Butyl[1,2,4]triazolo[1,5-a]pyrimidin-7-yl)amino]-1-[3-fluoro-4-(trifluoro-methoxy)phenyl]-2-methylpropan-2-ol]
20 | > 2960 | CC(C)(C)c1cc(NC(c2ccc(OC(F)(F)F)c(F)c2)C(C)(C)O)n2ncnc2n1 (single isomer, unassigned) [Example 147, (1R or S)-1-[(5-tert-Butyl[1,2,4]triazolo[1,5-a]pyrimidin-7-yl)amino]-1-[3-fluoro-4-(trifluoro-methoxy)phenyl]-2-methylpropan-2-ol]
